Patent EP0308983A2, “NMR imaging with Mn(II) coordination compositions” (priority 1987, dated 1989)
Where “and” joins values, the source holds several entries; their conditions need not be identical. Equal entries are not always repeated. Where two headings read alike, the source gives them in different places.

How the values were obtained:
[1] = Dose needed to lower blood or plasma T₁ to 200 msec at 0.15 T
[2] = system: test population of animals; details: for LD₅₀: Table A, species and unit not given; for Safety Factor: in vivo
[3] = Paramagnetic relaxation properties in water at 10 MHz (0.15T), RADX spin analyzer; assay type: physicochemical; details: 10 MHz (0.15T)
Procedure: The paramagnetic relaxation properties of [manganese(II)·(H₂O)₂·(L-alanine)₂]⁺²(Cl₂)⁻² in water were measured at 10 MHz (0.15T) with a spin analyzer (RADX; Houston, TX) at 37°C. After thermal equilibrium, the spin-lattice (T₁) and spin-spin (T₂) relaxation values were measured in triplicate.
The paramagnetic relaxation of the title compound in water was measured at 10 MHz (0.15T) with a spin analyzer (RADX; Houston, TX). After thermal equilibrium, the spin-lattice (T₁) and spin-spin (T₂) relaxation values were measured.
Relaxivity was measured at 10 MHz (0.15T) as described in Example 10.
The relaxivity of the title compound was performed at 0.15 T (10 MHz) with a RADX Spin Analyzer (Houston, TX) at 37°C.

[4] = Procedure: Three buffers were tested for suitability.
One part of the solution of the title compound, synthesized according to Example 35, was added to one part of a US National Bureau of Standard buffer solution for pH 4.0 (American Scientific Products; Phthalate reference buffer).

New Zealand white rabbit = system: New Zealand white rabbit
Procedure: This solution was infused into a New Zealand white rabbit (3.1 kg wt.) at 0.065 mmole/kg/min for 5 min to achieve a total dose of […]. […] 15 Min after the infusion, the rabbit was sacrificed by lethal pentobarbitol injection, and the heart and liver were removed. Samples of these organs were tested for relaxation time at 0.15 T with a RADX spectrometer (Houston, TX).
At a lower dose level (0.10 mmole/kg), the effects of a rapid bolus injection (10 sec) or a slow infusion (over 5 min) were tested in two New Zealand white rabbits. 15 Min after the end of the infusion or injection, the animals were sacrificed and T₁ and T₂ values were measured on 4-16 individual samples of kidney, liver and heart tissue.

[5] = Stability of aqueous solutions after addition of a NaOH solution; details: ratio of OH⁻ to compound of 0.2; 161 mM (glycine) or 167 mM (gluconate) aqueous solution
Procedure: NMR contrast agents must be stable in solution under adverse conditions to be effective as pharmaceutical agents.
One ml of a 161 mM solution (initial pH 5) was placed in a test tube at 19°C. Sodium hydroxide (0.032 ml; 1 N) was added to the solution, giving a ratio of OH⁻ to compound of 0.2.
[Manganese(II)·(H₂O)₂·(gluconate)₂]⁺²(Cl₂)⁻² was prepared according to the procedure of Example 24. Deionized water was added to form a 167 mM clear solution. One mole equivalent of sodium hydroxide solution was added to five mole equivalents of the [manganese(II)·(H₂O)₂·(gluconate)₂]⁺²(Cl₂)⁻² solution, giving a ratio of OH⁻ to compound of 0.20.

[6] = Plasma clearance: plasma T₁ and T₂ times after injection; assay type: in vivo; details: rabbit, 0.1 mmole/kg; for plasma T₁ / plasma T₂: 0.15 T
Procedure: A dose of 0.1 mmole/kg of GdDTPA was injected into a rabbit and blood samples were drawn at 10 min intervals for 50 min. The blood was centrifuged, and the plasma T₁ and T₂ times were measured at 0.15 T with a RADX PROTON SPIN ANALYZER (Houston, TX).

[7] = Paramagnetic relaxation properties in human plasma at 37°C; assay type: physicochemical
[8] = system: New Zealand white rabbits; details: rabbit, 1.5 T
Procedure: A General Electric Signa Magnetic Resonance Imaging System, operating at 1.5 T, and using a knee surface coil was used. New Zealand white rabbits (ca. 2.5 kg wt.) were used for imaging. […] With these instrument settings, an image could be acquired in about 1.3 min. Images of the rabbit kidney and liver were taken before injection and at 1, 3, 6, 8, 12, 16, 21, 26, 36, 46, and 56 min intervals after injection.
Schematic drawings of the images before injection and at intervals of 10 and 60 minutes are show in Fig. 1, 2 and 3, respectively.

Rats = details: IV, standard conditions, 10 animals per dosage group
Description: The doses were 0.3, 0.5, and 0.8 mmole/kg. 10 Animals were used in each dosage group.

[9] = dose needed to lower T₁ from 1500 to 200 msec at 0.15 T, unit not given
[10] = one part + one part carbonate pH reference buffer pH 10.0, the pH was 10.45
[11] = one part + one part phosphate pH reference buffer pH 7.0, the pH was 7.63
[12] = one part solution + one part phthalate reference buffer pH 4.0, the pH was 4.69
[13] = 0.10 mmole/kg, bolus (10 sec), 15 min after, mean of samples
[14] = 0.10 mmole/kg, slow infusion (over 5 min), 15 min after, mean of samples
[15] = infusion 0.065 mmole/kg/min for 5 min, total dose 0.31 mole/kg, 15 min after infusion, 0.15 T
[16] = 0.99 mM solution in water, 37°C, triplicate, mean +/- SD
[17] = 37°C, repeat measurement 80 minutes later

Manganese chloride [MnCl₂]
Plasma Dose, T₁ = 200 [1, 9]: 0.01

CC(=O)[O-].CC(=O)[O-].NCC(=O)O.NCC(=O)O.[Mn+2] [Mn(acetate)₂-bis-glycine]
LD₅₀ [2]: 0.7 | Safety Factor [2]: 70 | Plasma Dose, T₁ = 200 [1]: 0.10

MnEDTA [reference compound]
LD₅₀ [2]: 5.0 | Safety Factor [2]: 38 | Plasma Dose, T₁ = 200 [1, 9]: 0.13

CC(=O)[O-].CC(=O)[O-].NCC(=O)O.NCC(=O)O.O.O.[Mn+2] [[Manganese(II)·(H₂O)₂·(Glycine)₂]Diacetate]
Relaxivity (mM⁻¹sec⁻¹) Spin-Lattice ([3]; 1 mM solution in water): 8.40 mM⁻¹ s⁻¹ | Relaxivity (mM⁻¹sec⁻¹) Spin-Spin ([3]; 1 mM solution in water): 34.5 mM⁻¹ s⁻¹ | appearance of the solution [4, 10]: remained clear | change of relaxivity over a 12 hour time period [4, 10]: the relaxivity did not change | appearance of the solution [4, 11]: remained clear | change of relaxivity over a 12 hour time period [4, 11]: the relaxivity did not change | appearance of the solution [4, 12]: remained clear | change of relaxivity over a 12 hour time period [4, 12]: the relaxivity did not change

NCC(=O)O.NCC(=O)O.O.O.[Cl-].[Cl-].[Mn+2] [[Manganese(II)·(H₂O)₂·(glycine)₂]⁺²(Cl₂)⁻²]
Heart T₁, Bolus Injection, Mean (New Zealand white rabbit; [13]): 156 ms | Heart T₂, Bolus Injection, Mean (New Zealand white rabbit; [13]): 40 ms | Kidney T₁, Bolus Injection, Mean (New Zealand white rabbit; [13]): 109 ms | Kidney T₂, Bolus Injection, Mean (New Zealand white rabbit; [13]): 40 ms | Liver T₁, Bolus Injection, Mean (New Zealand white rabbit; [13]): 51 ms | Liver T₂, Bolus Injection, Mean (New Zealand white rabbit; [13]): 18 ms | Liver T₂, Infusion (New Zealand white rabbit; 0.10 mmole/kg, slow infusion (over 5 min), 15 min after, individual tissue samples): 15 msec (2×) and 11 msec and 20 msec | Heart T₁, Infusion, Mean (New Zealand white rabbit; [14]): 179 ms | Heart T₂, Infusion, Mean (New Zealand white rabbit; [14]): 41 ms | Kidney T₁, Infusion, Mean (New Zealand white rabbit; [14]): 120 ms | Kidney T₂, Infusion, Mean (New Zealand white rabbit; [14]): 45 ms | Liver T₁, Infusion, Mean (New Zealand white rabbit; [14]): 39 ms | Liver T₂, Infusion, Mean (New Zealand white rabbit; [14]): 15 ms | tolerance of the infusion (New Zealand white rabbit; infusion 0.065 mmole/kg/min for 5 min, total dose 0.31 mole/kg): tolerated the infusion without outward signs of a pharmacologic or toxicologic effect | heart T₁ (New Zealand white rabbit; [15]): 45 ms | heart T₂ (New Zealand white rabbit; [15]): 21 ms | liver T₁ (New Zealand white rabbit; [15]): 19 ms | liver T₂ (New Zealand white rabbit; [15]): 10 ms | spin-lattice (T₁) relaxation value [3, 16]: 109 ± 5 ms | spin-spin (T₂) relaxation value [3, 16]: 26 ± 1 ms | millimolar relaxivity for T₁ ([3]; in water, calculated from T₁ and concentration): 9.27 mM⁻¹ s⁻¹ | millimolar relaxivity for T₂ ([3]; in water, calculated from T₂ and concentration): 38.9 mM⁻¹ s⁻¹ | stability after addition of a NaOH solution [5]: the solution remained clear with no discoloration or formation of a precipitate | time for which the plasma T₁ was maintained below 250 [6]: 40 min | plasma T₁ ([6]; 0 min (baseline)): 1600 ms | plasma T₂ ([6]; 0 min (baseline)): 447 ms | plasma T₁ ([6]; 10 min): 58 ms | plasma T₂ ([6]; 10 min): 42 ms | plasma T₁ ([6]; 20 min): 102 ms | plasma T₂ ([6]; 20 min): 65 ms | plasma T₁ ([6]; 30 min): 156 ms | plasma T₂ ([6]; 30 min): 110 ms | plasma T₁ ([6]; 40 min): 224 ms | plasma T₂ ([6]; 40 min): 156 ms | plasma T₁ ([6]; 50 min): 259 ms | plasma T₂ ([6]; 50 min): 180 ms | plasma T₁ ([6]; 60 min): 323 ms | plasma T₂ ([6]; 60 min): 205 ms | plasma T₁ ([6]; 70 min): 453 ms | plasma T₂ ([6]; 70 min): 257 ms | plasma T₁ ([6]; 80 min): 550 ms | plasma T₂ ([6]; 80 min): 293 ms | plasma T₁ ([6]; 90 min): 625 ms | plasma T₂ ([6]; 90 min): 295 ms | T₂ value ([7]; 94 µM final concentration, 37°C): 184 ± 12 ms | T₁ value ([7]; 94 µM final concentration, 37°C, triplicate): 227 ± 3 ms | R₁ ([7]; 37°C): 46.9 mM⁻¹ s⁻¹ | R₂ ([7]; 37°C): 57.8 mM⁻¹ s⁻¹ | T₁ changed by (repeat measurement) [7, 17]: 2% | T₂ changed by (repeat measurement) [7, 17]: 2% | T₂ relaxivity in plasma, fold greater than GdDTPA ([7]; versus GdDTPA): 12.0 fold | T₁ relaxivity in plasma, fold greater than GdDTPA ([7]; versus gadolinium diethylenetriaminepentaacetic acid chelate (GdDTPA)): 9.8 fold | liver parenchyma image intensity ([8]; image after one hour (60 min)): returned to normal intensity | enhancement of the liver and parenchyma in the image ([8]; one min after injection, doses of 10 and 20 µmole/kg, Spin Echo TR = 300 msec, TE = 20 msec): over 100% | LD₅₀ (Rats): 0.70 mmol/kg
